Measurements reported in PubChem BioAssay (NCI).
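Growth conditions: 96-well plates. Treatment: test compound, 48 hours, 5 concentrations. Analysis: linear interpolation between bracketing concentrations; unreached endpoints set to highest concentration. TGI is the concentration that stops growth completely.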

Experiments:
Test in all cases: inhibition of tumour cell growth, NCI panel, 48 h
A498 renal = tested on: A498 renal
MDA-MB-435 = tested on: MDA-MB-435
HCT-15 colon = tested on: HCT-15 colon
LOX IMVI melanoma = tested on: LOX IMVI melanoma
A549 NSCLC = tested on: A549 NSCLC
NCI-H226 lung = tested on: NCI-H226 lung
MDA-N = tested on: MDA-N
HT29 colon = tested on: HT29 colon
T-47D breast = tested on: T-47D breast
TK-10 renal = tested on: TK-10 renal
SF-268 CNS = tested on: SF-268 CNS
ACHN renal = tested on: ACHN renal
SK-OV-3 ovarian = tested on: SK-OV-3 ovarian
SR leukemia = tested on: SR leukemia
HOP-62 NSCLC = tested on: HOP-62 NSCLC
OVCAR-4 ovarian = tested on: OVCAR-4 ovarian
HCC-2998 colon = tested on: HCC-2998 colon
OVCAR-3 ovarian = tested on: OVCAR-3 ovarian
SF-295 CNS = tested on: SF-295 CNS
OVCAR-8 ovarian = tested on: OVCAR-8 ovarian
HL-60(TB) leukemia = tested on: HL-60(TB) leukemia
UACC-62 melanoma = tested on: UACC-62 melanoma
KM12 colon = tested on: KM12 colon
HOP-92 NSCLC = tested on: HOP-92 NSCLC
MALME-3M melanoma = tested on: MALME-3M melanoma
EKVX NSCLC = tested on: EKVX NSCLC
SK-MEL-5 melanoma = tested on: SK-MEL-5 melanoma
HS 578T breast = tested on: HS 578T breast
SNB-75 CNS = tested on: SNB-75 CNS
NCI-H522 lung = tested on: NCI-H522 lung
NCI/ADR-RES ovarian = tested on: NCI/ADR-RES ovarian
RXF 393 renal = tested on: RXF 393 renal
SK-MEL-2 melanoma = tested on: SK-MEL-2 melanoma
SNB-19 CNS = tested on: SNB-19 CNS
K-562 leukemia = tested on: K-562 leukemia
UO-31 renal = tested on: UO-31 renal
DU-145 prostate = tested on: DU-145 prostate
SW-620 colon = tested on: SW-620 colon
OVCAR-5 ovarian = tested on: OVCAR-5 ovarian
PC-3 prostate = tested on: PC-3 prostate
MOLT-4 leukemia = tested on: MOLT-4 leukemia
U251 CNS = tested on: U251 CNS
SK-MEL-28 melanoma = tested on: SK-MEL-28 melanoma
M14 melanoma = tested on: M14 melanoma
IGROV1 ovarian = tested on: IGROV1 ovarian
NCI-H460 lung = tested on: NCI-H460 lung
786-0 renal = tested on: 786-0 renal
COLO 205 colon = tested on: COLO 205 colon
UACC-257 melanoma = tested on: UACC-257 melanoma
RPMI-8226 leukemia = tested on: RPMI-8226 leukemia
SN12C renal = tested on: SN12C renal
CAKI-1 renal = tested on: CAKI-1 renal
HCT-116 colon = tested on: HCT-116 colon
NCI-H23 lung = tested on: NCI-H23 lung
SF-539 CNS = tested on: SF-539 CNS
CCRF-CEM leukemia = tested on: CCRF-CEM leukemia
MCF7 breast = tested on: MCF7 breast
MDA-MB-231 breast = tested on: MDA-MB-231 breast
BT-549 breast = tested on: BT-549 breast

Compound: CC(C)(C)N(Cc1ccccc1)C(=O)/C=C\S(=O)c1ccccc1 (stereo not drawn)
- TGI (A498 renal): 26.5 µM
- TGI (MDA-MB-435): 11.3 µM
- TGI (HCT-15 colon): 18 µM
- TGI (LOX IMVI melanoma): 5.7 µM
- TGI (A549 NSCLC): 25.4 µM
- TGI (NCI-H226 lung): 16.4 µM
- TGI (MDA-N): 8.64 µM
- TGI (HT29 colon): 14.3 µM
- TGI (T-47D breast): 22.2 µM
- TGI (TK-10 renal): 18.5 µM
- TGI (SF-268 CNS): 6.96 µM
- TGI (ACHN renal): 15.9 µM
- TGI (SK-OV-3 ovarian): 19.9 µM
- TGI (SR leukemia): > 29.6 µM
- TGI (HOP-62 NSCLC): 21.2 µM
- TGI (OVCAR-4 ovarian): 9.25 µM
- TGI (HCC-2998 colon): 15.5 µM
- TGI (OVCAR-3 ovarian): 7.41 µM
- TGI (SF-295 CNS): 27.3 µM
- TGI (OVCAR-8 ovarian): 4.16 µM
- TGI (HL-60(TB) leukemia): 6.54 µM
- TGI (UACC-62 melanoma): 15.2 µM
- TGI (KM12 colon): 18.1 µM
- TGI (HOP-92 NSCLC): 10.8 µM
- TGI (MALME-3M melanoma): 12.2 µM
- TGI (EKVX NSCLC): 24.1 µM
- TGI (SK-MEL-5 melanoma): 15.9 µM
- TGI (HS 578T breast): 7.19 µM
- TGI (SNB-75 CNS): 23.1 µM
- TGI (NCI-H522 lung): 2.7 µM
- TGI (NCI/ADR-RES ovarian): 13.7 µM
- TGI (RXF 393 renal): 13.8 µM
- TGI (SK-MEL-2 melanoma): 8.79 µM
- TGI (SNB-19 CNS): 23.6 µM
- TGI (K-562 leukemia): > 100 µM
- TGI (UO-31 renal): 7.71 µM
- TGI (DU-145 prostate): 13.6 µM
- TGI (SW-620 colon): 9.13 µM
- TGI (OVCAR-5 ovarian): 28.8 µM
- TGI (PC-3 prostate): 13.2 µM
- TGI (MOLT-4 leukemia): 7.39 µM
- TGI (U251 CNS): 15.5 µM
- TGI (SK-MEL-28 melanoma): 21.7 µM
- TGI (M14 melanoma): 8.91 µM
- TGI (IGROV1 ovarian): 17.8 µM
- TGI (NCI-H460 lung): 16 µM
- TGI (786-0 renal): 4.87 µM
- TGI (COLO 205 colon): 12.8 µM
- TGI (UACC-257 melanoma): 16.2 µM
- TGI (RPMI-8226 leukemia): 7.78 µM
- TGI (SN12C renal): 8.66 µM
- TGI (CAKI-1 renal): 18.4 µM
- TGI (HCT-116 colon): 7.05 µM
- TGI (NCI-H23 lung): 7.74 µM
- TGI (SF-539 CNS): 9.67 µM
- TGI (CCRF-CEM leukemia): > 44.9 µM
- TGI (MCF7 breast): 16.4 µM
- TGI (MDA-MB-231 breast): 11.8 µM
- TGI (BT-549 breast): 12.9 µM

Compound: O=C1C=CC2(C=C1)O[C@H](COCc1ccccc1)[C@@H](COCc1ccccc1)O2
- TGI (A498 renal): 34.1 µM
- TGI (MDA-MB-435): 5.51 µM
- TGI (HCT-15 colon): 2.99 µM
- TGI (LOX IMVI melanoma): 3.51 µM
- TGI (A549 NSCLC): 39 µM
- TGI (NCI-H226 lung): 3.89 µM
- TGI (MDA-N): 3.53 µM
- TGI (HT29 colon): 5.88 µM
- TGI (T-47D breast): 6.99 µM
- TGI (TK-10 renal): 4.17 µM
- TGI (SF-268 CNS): 3.69 µM
- TGI (ACHN renal): 3.1 µM
- TGI (SK-OV-3 ovarian): 29 µM
- TGI (SR leukemia): 0.849 µM
- TGI (HOP-62 NSCLC): 5.12 µM
- TGI (OVCAR-4 ovarian): 4.66 µM
- TGI (OVCAR-3 ovarian): 6.32 µM
- TGI (SF-295 CNS): 30.3 µM
- TGI (OVCAR-8 ovarian): 1.28 µM
- TGI (HL-60(TB) leukemia): 6.4 µM
- TGI (UACC-62 melanoma): 3.99 µM
- TGI (KM12 colon): 14.3 µM
- TGI (HOP-92 NSCLC): 2.64 µM
- TGI (MALME-3M melanoma): 6.48 µM
- TGI (EKVX NSCLC): 3.66 µM
- TGI (SK-MEL-5 melanoma): 3.22 µM
- TGI (HS 578T breast): 4.87 µM
- TGI (SNB-75 CNS): 13.4 µM
- TGI (NCI/ADR-RES ovarian): 3.71 µM
- TGI (RXF 393 renal): 1.31 µM
- TGI (SK-MEL-2 melanoma): 3.46 µM
- TGI (SNB-19 CNS): 12.3 µM
- TGI (K-562 leukemia): > 100 µM
- TGI (UO-31 renal): 2.91 µM
- TGI (DU-145 prostate): 12.5 µM
- TGI (SW-620 colon): 0.765 µM
- TGI (OVCAR-5 ovarian): 3.04 µM
- TGI (PC-3 prostate): 4.74 µM
- TGI (MOLT-4 leukemia): 15.1 µM
- TGI (U251 CNS): 4.02 µM
- TGI (SK-MEL-28 melanoma): 3.57 µM
- TGI (M14 melanoma): 3.88 µM
- TGI (IGROV1 ovarian): 3.03 µM
- TGI (NCI-H460 lung): 37.2 µM
- TGI (786-0 renal): 2.22 µM
- TGI (COLO 205 colon): 3.35 µM
- TGI (UACC-257 melanoma): 3.56 µM
- TGI (RPMI-8226 leukemia): 1.94 µM
- TGI (SN12C renal): 3.6 µM
- TGI (CAKI-1 renal): 5.88 µM
- TGI (HCT-116 colon): 0.582 µM
- TGI (NCI-H23 lung): 4.29 µM
- TGI (SF-539 CNS): 3.62 µM
- TGI (MCF7 breast): 2.3 µM
- TGI (MDA-MB-231 breast): 12.8 µM
- TGI (BT-549 breast): 2.37 µM

Compound: COc1ccc2c(-c3csc(-c4c[nH]c5ccc(Br)cc45)n3)c[nH]c2c1
- TGI (A498 renal): > 100 µM
- TGI (MDA-MB-435): 67.9 µM
- TGI (HCT-15 colon): > 100 µM
- TGI (LOX IMVI melanoma): > 100 µM
- TGI (A549 NSCLC): > 100 µM
- TGI (NCI-H226 lung): > 100 µM
- TGI (MDA-N): 30.8 µM
- TGI (HT29 colon): > 100 µM
- TGI (T-47D breast): > 100 µM
- TGI (TK-10 renal): > 100 µM
- TGI (SF-268 CNS): 73.4 µM
- TGI (ACHN renal): > 100 µM
- TGI (HOP-62 NSCLC): > 100 µM
- TGI (OVCAR-4 ovarian): > 100 µM
- TGI (OVCAR-3 ovarian): > 100 µM
- TGI (SF-295 CNS): > 100 µM
- TGI (OVCAR-8 ovarian): > 100 µM
- TGI (UACC-62 melanoma): > 100 µM
- TGI (KM12 colon): > 100 µM
- TGI (HOP-92 NSCLC): > 100 µM
- TGI (MALME-3M melanoma): 43.9 µM
- TGI (EKVX NSCLC): > 100 µM
- TGI (SK-MEL-5 melanoma): > 100 µM
- TGI (HS 578T breast): > 100 µM
- TGI (NCI-H522 lung): 92.6 µM
- TGI (NCI/ADR-RES ovarian): > 100 µM
- TGI (RXF 393 renal): 27.9 µM
- TGI (SK-MEL-2 melanoma): > 100 µM
- TGI (SNB-19 CNS): > 100 µM
- TGI (K-562 leukemia): > 100 µM
- TGI (UO-31 renal): > 100 µM
- TGI (DU-145 prostate): > 100 µM
- TGI (SW-620 colon): > 100 µM
- TGI (OVCAR-5 ovarian): > 100 µM
- TGI (PC-3 prostate): 79.3 µM
- TGI (MOLT-4 leukemia): > 100 µM
- TGI (U251 CNS): > 100 µM
- TGI (SK-MEL-28 melanoma): > 100 µM
- TGI (M14 melanoma): > 100 µM
- TGI (IGROV1 ovarian): > 100 µM
- TGI (NCI-H460 lung): > 100 µM
- TGI (786-0 renal): > 100 µM
- TGI (COLO 205 colon): > 100 µM
- TGI (UACC-257 melanoma): > 100 µM
- TGI (RPMI-8226 leukemia): > 100 µM
- TGI (SN12C renal): > 100 µM
- TGI (CAKI-1 renal): > 100 µM
- TGI (HCT-116 colon): > 100 µM
- TGI (NCI-H23 lung): > 100 µM
- TGI (CCRF-CEM leukemia): > 100 µM
- TGI (MCF7 breast): > 100 µM
- TGI (MDA-MB-231 breast): 83.1 µM
- TGI (BT-549 breast): > 100 µM
